System: subjects with chronic ITP
Assay: Combined 28-day and 6-month rollover studies of E5501: safety (TEAEs, serious TEAEs, thromboembolic events, neoplasms, liver toxicity, discontinuations)
Format: in vivo, human
Conditions: N=22
From the text: Primary Endpoint: The primary endpoint was to assess the safety and tolerability to E5501, including AEs and clinical laboratory parameters, over the 6 additional months of treatment.
In this way, safety data reflect each subject's complete duration of exposure to E5501 starting with lead-in the previous study and continuing into the current study.
Following Protocol Amendment 4, the current study contained a flexible dose regimen; therefore, this study was considered to have an open-label, uncontrolled, single-arm design. […] This was the method used to assess safety. • Grouping method B was based on both treatment received and day 28 platelet response to study drug in Study the previous study. This was the method used for the analysis of efficacy for the FAS and the SE population.
Overall Adverse Events. […] The primary focus is on summary statistics for the entire safety population and provides an overall safety profile for E5501. The summary statistics for each group, e.g., lower ⅓, middle ⅓ and upper ⅓ average daily dose levels, is secondary and provides further safety information across the 3 dose levels.

O=C(Nc1nc(-c2cc(Cl)cs2)c(N2CCN(C3CCCCC3)CC2)s1)c1cnc(N2CCC(C(=O)O)CC2)c(Cl)c1 [E5501, 1-(3-chloro-5-{[4-(4-chlorothiophen-2-yl)-5-(4-cyclohexylpiperazin-1-yl)thiazol-2-yl]carbamoyl}pyridine-2-yl)piperidine-4-carboxylic acid]
Serious TEAE, n of subjects (Lower ⅓ dose (2.5-<8.85 mg)): 1
Serious treatment-related TEAEs, % of subjects (Lower ⅓ dose (2.5-<8.85 mg)): (4.5) %
Serious treatment-related TEAEs, n of subjects (Lower ⅓ dose (2.5-<8.85 mg)): 1
Severe (grade 3-4) TEAEs, % of subjects (Lower ⅓ dose (2.5-<8.85 mg)): (18.2) %
Severe (grade 3-4) TEAEs, n of subjects (Lower ⅓ dose (2.5-<8.85 mg)): 4
Somnolence, n of subjects (Lower ⅓ dose (2.5-<8.85 mg)): 0
Suspected drug-related AEs, % of subjects (Lower ⅓ dose (2.5-<8.85 mg)): (59.1) %
Suspected drug-related AEs, n of subjects (Lower ⅓ dose (2.5-<8.85 mg)): 13
Upper respiratory tract infection, % of subjects (Lower ⅓ dose (2.5-<8.85 mg)): (9.1) %
Upper respiratory tract infection, n of subjects (Lower ⅓ dose (2.5-<8.85 mg)): 2
Vomiting, % of subjects (Lower ⅓ dose (2.5-<8.85 mg)): (4.5) %
Vomiting, n of subjects (Lower ⅓ dose (2.5-<8.85 mg)): 1
Withdrawal due to TEAE, % of subjects (Lower ⅓ dose (2.5-<8.85 mg)): (13.6) %
Withdrawal due to TEAE, n of subjects (Lower ⅓ dose (2.5-<8.85 mg)): 3
Abdominal pain upper, n of subjects (Middle ⅓ dose (≧8.85-<13.5 mg)): 0
Any Serious TEAE, n (%) of subjects (Middle ⅓ dose (≧8.85-<13.5 mg)): 3 (13.6) n (%)
Any TEAE, % of subjects (Middle ⅓ dose (≧8.85-<13.5 mg)): (100.0) %
Any TEAE, n of subjects (Middle ⅓ dose (≧8.85-<13.5 mg)): 22
Arthralgia, % of subjects (Middle ⅓ dose (≧8.85-<13.5 mg)): (18.2) %
Arthralgia, n of subjects (Middle ⅓ dose (≧8.85-<13.5 mg)): 4
Asthenia, n of subjects (Middle ⅓ dose (≧8.85-<13.5 mg)): 0
Back pain, % of subjects (Middle ⅓ dose (≧8.85-<13.5 mg)): (9.1) %
Back pain, n of subjects (Middle ⅓ dose (≧8.85-<13.5 mg)): 2
Constipation, % of subjects (Middle ⅓ dose (≧8.85-<13.5 mg)): (13.6) %
Constipation, n of subjects (Middle ⅓ dose (≧8.85-<13.5 mg)): 3
Contusion, % of subjects (Middle ⅓ dose (≧8.85-<13.5 mg)): (13.6) %
Contusion, n of subjects (Middle ⅓ dose (≧8.85-<13.5 mg)): 3
Cough, n of subjects (Middle ⅓ dose (≧8.85-<13.5 mg)): 0
Deaths, n of subjects (Middle ⅓ dose (≧8.85-<13.5 mg)): 0
Diarrhoea, % of subjects (Middle ⅓ dose (≧8.85-<13.5 mg)): (4.5) %
Diarrhoea, n of subjects (Middle ⅓ dose (≧8.85-<13.5 mg)): 1
Dizziness, % of subjects (Middle ⅓ dose (≧8.85-<13.5 mg)): (4.5) %
Dizziness, n of subjects (Middle ⅓ dose (≧8.85-<13.5 mg)): 1
Dose interruption due to TEAE, % of subjects (Middle ⅓ dose (≧8.85-<13.5 mg)): (13.6) %
Dose interruption due to TEAE, n of subjects (Middle ⅓ dose (≧8.85-<13.5 mg)): 3
Dyspnoea, % of subjects (Middle ⅓ dose (≧8.85-<13.5 mg)): (13.6) %
Dyspnoea, n of subjects (Middle ⅓ dose (≧8.85-<13.5 mg)): 3
Ecchymosis, % of subjects (Middle ⅓ dose (≧8.85-<13.5 mg)): (9.1) %
Ecchymosis, n of subjects (Middle ⅓ dose (≧8.85-<13.5 mg)): 2
Epistaxis, % of subjects (Middle ⅓ dose (≧8.85-<13.5 mg)): (13.6) %
Epistaxis, n of subjects (Middle ⅓ dose (≧8.85-<13.5 mg)): 3
Fatigue, % of subjects (Middle ⅓ dose (≧8.85-<13.5 mg)): (31.8) %
Fatigue, n of subjects (Middle ⅓ dose (≧8.85-<13.5 mg)): 7
Gingival bleeding, % of subjects (Middle ⅓ dose (≧8.85-<13.5 mg)): (9.1) %
Gingival bleeding, n of subjects (Middle ⅓ dose (≧8.85-<13.5 mg)): 2
Headache, % of subjects (Middle ⅓ dose (≧8.85-<13.5 mg)): (40.9) %
Headache, n of subjects (Middle ⅓ dose (≧8.85-<13.5 mg)): 9
Insomnia, % of subjects (Middle ⅓ dose (≧8.85-<13.5 mg)): (13.6) %
Insomnia, n of subjects (Middle ⅓ dose (≧8.85-<13.5 mg)): 3
Migraine, % of subjects (Middle ⅓ dose (≧8.85-<13.5 mg)): (4.5) %
Migraine, n of subjects (Middle ⅓ dose (≧8.85-<13.5 mg)): 1
Mouth haemorrhage, n of subjects (Middle ⅓ dose (≧8.85-<13.5 mg)): 0
Nausea, % of subjects (Middle ⅓ dose (≧8.85-<13.5 mg)): (9.1) %
Nausea, n of subjects (Middle ⅓ dose (≧8.85-<13.5 mg)): 2
Pain in extremity, % of subjects (Middle ⅓ dose (≧8.85-<13.5 mg)): (9.1) %
Pain in extremity, n of subjects (Middle ⅓ dose (≧8.85-<13.5 mg)): 2
Petechiae, % of subjects (Middle ⅓ dose (≧8.85-<13.5 mg)): (4.5) %
Petechiae, n of subjects (Middle ⅓ dose (≧8.85-<13.5 mg)): 1
Platelet count increased, % of subjects (Middle ⅓ dose (≧8.85-<13.5 mg)): (9.1) %
Platelet count increased, n of subjects (Middle ⅓ dose (≧8.85-<13.5 mg)): 2
Serious TEAE Cerebrovascular accident, n (%) of subjects (Middle ⅓ dose (≧8.85-<13.5 mg)): 0 n (%)
Serious TEAE Chest pain, n (%) of subjects (Middle ⅓ dose (≧8.85-<13.5 mg)): 0 n (%)
Serious TEAE Diarrhoea, n (%) of subjects (Middle ⅓ dose (≧8.85-<13.5 mg)): 0 n (%)
Serious TEAE Haemorrhage intracranial, n (%) of subjects (Middle ⅓ dose (≧8.85-<13.5 mg)): 1 (4.5) n (%)
Serious TEAE Lethargy, n (%) of subjects (Middle ⅓ dose (≧8.85-<13.5 mg)): 1 (4.5) n (%)
Serious TEAE Mitral valve incompetence, n (%) of subjects (Middle ⅓ dose (≧8.85-<13.5 mg)): 0 n (%)
Serious TEAE Myocardial infarction, n (%) of subjects (Middle ⅓ dose (≧8.85-<13.5 mg)): 1 (4.5) n (%)
Serious TEAE Nausea, n (%) of subjects (Middle ⅓ dose (≧8.85-<13.5 mg)): 1 (4.5) n (%)
Serious TEAE Pelvic venous thrombosis, n (%) of subjects (Middle ⅓ dose (≧8.85-<13.5 mg)): 1 (4.5) n (%)
Serious TEAE Platelet count decreased, n (%) of subjects (Middle ⅓ dose (≧8.85-<13.5 mg)): 1 (4.5) n (%)
Serious TEAE Pneumonia, n (%) of subjects (Middle ⅓ dose (≧8.85-<13.5 mg)): 1 (4.5) n (%)
Serious TEAE Pyrexia, n (%) of subjects (Middle ⅓ dose (≧8.85-<13.5 mg)): 0 n (%)
Serious TEAE Thrombocytopenia, n (%) of subjects (Middle ⅓ dose (≧8.85-<13.5 mg)): 0 n (%)
Serious TEAE Transient ischaemic attack, n (%) of subjects (Middle ⅓ dose (≧8.85-<13.5 mg)): 1 (4.5) n (%)
Serious TEAE Vomiting, n (%) of subjects (Middle ⅓ dose (≧8.85-<13.5 mg)): 1 (4.5) n (%)
Serious TEAE, % of subjects (Middle ⅓ dose (≧8.85-<13.5 mg)): (13.6) %
Serious TEAE, SOC Blood and lymphatic system disorders, n (%) of subjects (Middle ⅓ dose (≧8.85-<13.5 mg)): 0 n (%)
Serious TEAE, SOC Cardiac disorders, n (%) of subjects (Middle ⅓ dose (≧8.85-<13.5 mg)): 1 (4.5) n (%)
Serious TEAE, SOC Gastrointestinal disorders, n (%) of subjects (Middle ⅓ dose (≧8.85-<13.5 mg)): 1 (4.5) n (%)
Serious TEAE, SOC General disorders and administration site conditions, n (%) of subjects (Middle ⅓ dose (≧8.85-<13.5 mg)): 0 n (%)
Serious TEAE, SOC Infections and infestations, n (%) of subjects (Middle ⅓ dose (≧8.85-<13.5 mg)): 1 (4.5) n (%)
Serious TEAE, SOC Investigations, n (%) of subjects (Middle ⅓ dose (≧8.85-<13.5 mg)): 1 (4.5) n (%)
Serious TEAE, SOC Nervous system disorders, n (%) of subjects (Middle ⅓ dose (≧8.85-<13.5 mg)): 2 (9.1) n (%)
Serious TEAE, SOC Vascular disorders, n (%) of subjects (Middle ⅓ dose (≧8.85-<13.5 mg)): 1 (4.5) n (%)
Serious TEAE, n of subjects (Middle ⅓ dose (≧8.85-<13.5 mg)): 3
Serious treatment-related TEAEs, % of subjects (Middle ⅓ dose (≧8.85-<13.5 mg)): (4.5) %
Serious treatment-related TEAEs, n of subjects (Middle ⅓ dose (≧8.85-<13.5 mg)): 1
Severe (grade 3-4) TEAEs, % of subjects (Middle ⅓ dose (≧8.85-<13.5 mg)): (22.7) %
Severe (grade 3-4) TEAEs, n of subjects (Middle ⅓ dose (≧8.85-<13.5 mg)): 5
Somnolence, n of subjects (Middle ⅓ dose (≧8.85-<13.5 mg)): 0
Suspected drug-related AEs, % of subjects (Middle ⅓ dose (≧8.85-<13.5 mg)): (68.2) %
Suspected drug-related AEs, n of subjects (Middle ⅓ dose (≧8.85-<13.5 mg)): 15
Upper respiratory tract infection, % of subjects (Middle ⅓ dose (≧8.85-<13.5 mg)): (4.5) %
Upper respiratory tract infection, n of subjects (Middle ⅓ dose (≧8.85-<13.5 mg)): 1

Reference: US20110166112A1, “METHOD FOR STIMULATING PLATELET PRODUCTION” (Eisai, Inc., priority 2009, published 2011)
